Results: the supplement of paper PMC11616607

Experiments:
Test in all cases: drug sensitivity score (DSS) from 5-point dose-response viability curve (DSS (area-under-curve based score)); higher = more sensitive (stronger growth inhibition or killing); extreme values may be limits of the assay
Conditions in all cases: exposure time: 72 h; concentration range: 5 concentrations over 10,000-fold range
HOSE1C = system: HOSE1C
Summary of the method: (§1)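 Drug sensitivity scores were calculated in Breeze software for each cell line and drug pair; higher scores indicate more sensitivity. A score of zero indicates no response. The underlying assay used 384-well plates: drugs were placed by an Echo 550 acoustic dispenser at five concentrations spanning a 10,000-fold range, 1,500 ovarian cancer or normal ovarian cells were added per well, and cells were kept 3 days at 37°C, 5% CO2. Viability was then measured with CellTiter-Glo luminescence on a PHERAstar FS.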

OVCAR4 = system: OVCAR4
Summary of the method: as §1

OV90 = system: OV90
Summary of the method: as §1

HOSE2C = system: HOSE2C
Summary of the method: as §1

OVCAR5 = system: OVCAR5
Summary of the method: as §1

Kuramochi = system: Kuramochi
Summary of the method: as §1

Ovsaho = system: Ovsaho
Summary of the method: as §1

JHOS2 = system: JHOS2
Summary of the method: as §1

COV362 = system: COV362
Summary of the method: as §1

CAOV3 = system: CAOV3
Summary of the method: as §1

OVCAR8 = system: OVCAR8
Summary of the method: as §1

COV318 = system: COV318
Summary of the method: as §1

## O=C(NC[C@H](O)CN1CCc2ccccc2C1)c1cc(NC2COC2)ncn1
HOSE1C
  drug sensitivity score: 0
OVCAR4
  drug sensitivity score: 2
OV90
  drug sensitivity score: 0
HOSE2C
  drug sensitivity score: 0
OVCAR5
  drug sensitivity score: 0.8
Kuramochi
  drug sensitivity score: 0.4
Ovsaho
  drug sensitivity score: 0
JHOS2
  drug sensitivity score: 0.7
COV362
  drug sensitivity score: 0
CAOV3
  drug sensitivity score: 0
OVCAR8
  drug sensitivity score: 0
COV318
  drug sensitivity score: 0.2

## CN1CC[C@@H](NC(=O)Nc2ccc(C#N)cc2)C[C@@H]1c1nc2ccccc2[nH]1 [Glasdegib]
HOSE1C
  drug sensitivity score: 0
OVCAR4
  drug sensitivity score: 0
OV90
  drug sensitivity score: 0
HOSE2C
  drug sensitivity score: 0
OVCAR5
  drug sensitivity score: 0
Kuramochi
  drug sensitivity score: 0
Ovsaho
  drug sensitivity score: 0
JHOS2
  drug sensitivity score: 0
COV362
  drug sensitivity score: 0
CAOV3
  drug sensitivity score: 0
OVCAR8
  drug sensitivity score: 0
COV318
  drug sensitivity score: 0

## CCc1c(C(=O)C(N)=O)c2c(OCC(=O)O)cccc2n1Cc1ccccc1 [Varespladib]
HOSE1C
  drug sensitivity score: 0
OVCAR4
  drug sensitivity score: 0
OV90
  drug sensitivity score: 0
HOSE2C
  drug sensitivity score: 0
OVCAR5
  drug sensitivity score: 0
Kuramochi
  drug sensitivity score: 0
Ovsaho
  drug sensitivity score: 0
JHOS2
  drug sensitivity score: 0.1
COV362
  drug sensitivity score: 0
CAOV3
  drug sensitivity score: 0
OVCAR8
  drug sensitivity score: 0
COV318
  drug sensitivity score: 0

## Cc1cccc(-c2nn3c(c2-c2ccnc4ccc(C(N)=O)cc24)CCC3)n1 [Galunisertib]
HOSE1C
  drug sensitivity score: 0
OVCAR4
  drug sensitivity score: 0
OV90
  drug sensitivity score: 0
HOSE2C
  drug sensitivity score: 0
OVCAR5
  drug sensitivity score: 0
Kuramochi
  drug sensitivity score: 0
Ovsaho
  drug sensitivity score: 0
JHOS2
  drug sensitivity score: 0
COV362
  drug sensitivity score: 1.8
CAOV3
  drug sensitivity score: 0
OVCAR8
  drug sensitivity score: 0
COV318
  drug sensitivity score: 0.3

## Cc1ccc(C(=O)Nc2ccc(CN3CCN(C)CC3)c(C(F)(F)F)c2)cc1C#Cc1cnc2cccnn12 [Ponatinib]
HOSE1C
  drug sensitivity score: 3.3
OVCAR4
  drug sensitivity score: 5.7
OV90
  drug sensitivity score: 6.9
HOSE2C
  drug sensitivity score: 8.5
OVCAR5
  drug sensitivity score: 5.5
Kuramochi
  drug sensitivity score: 9.3
Ovsaho
  drug sensitivity score: 7.6
JHOS2
  drug sensitivity score: 3.6
COV362
  drug sensitivity score: 4.9
CAOV3
  drug sensitivity score: 2.4
OVCAR8
  drug sensitivity score: 3.3
COV318
  drug sensitivity score: 5.7

## Cc1cc([C@@H](C)Nc2ccccc2C(=O)O)c2nc(N3CCOCC3)cc(=O)n2c1 [AZD-6482]
HOSE1C
  drug sensitivity score: 0.3
OVCAR4
  drug sensitivity score: 1.6
OV90
  drug sensitivity score: 0
HOSE2C
  drug sensitivity score: 1.2
OVCAR5
  drug sensitivity score: 0.1
Kuramochi
  drug sensitivity score: 6
Ovsaho
  drug sensitivity score: 7.6
JHOS2
  drug sensitivity score: 0
COV362
  drug sensitivity score: 0
CAOV3
  drug sensitivity score: 2.3
OVCAR8
  drug sensitivity score: 0.7
COV318
  drug sensitivity score: 0.1

## Cc1sc2c(c1C)C(c1ccc(Cl)cc1)=N[C@@H](CC(=O)Nc1ccc(OCCOCCOCCOCCNc3cccc4c3C(=O)N(C3CCC(=O)NC3=O)C4=O)cc1)c1nnc(C)n1-2 (stereo partly specified) [ARV-825]
HOSE1C
  drug sensitivity score: 17.3
OVCAR4
  drug sensitivity score: 8.2
OV90
  drug sensitivity score: 6.7
HOSE2C
  drug sensitivity score: 7.9
OVCAR5
  drug sensitivity score: 7.9
Kuramochi
  drug sensitivity score: 9.9
Ovsaho
  drug sensitivity score: 10
JHOS2
  drug sensitivity score: 4.6
COV362
  drug sensitivity score: 1.5
CAOV3
  drug sensitivity score: 5.4
OVCAR8
  drug sensitivity score: 15.5
COV318
  drug sensitivity score: 5.2

## CC1(C)NC(=O)N(c2ccc([N+](=O)[O-])c(C(F)(F)F)c2)C1=O [Nilutamide]
HOSE1C
  drug sensitivity score: 0.8
OVCAR4
  drug sensitivity score: 0
OV90
  drug sensitivity score: 0
HOSE2C
  drug sensitivity score: 0
OVCAR5
  drug sensitivity score: 0.1
Kuramochi
  drug sensitivity score: 1.6
Ovsaho
  drug sensitivity score: 0
JHOS2
  drug sensitivity score: 0.6
COV362
  drug sensitivity score: 0
CAOV3
  drug sensitivity score: 0
OVCAR8
  drug sensitivity score: 0
COV318
  drug sensitivity score: 0

## Cc1c2oc3c(C)ccc(C(=O)N[C@@H]4C(=O)N[C@H](C(C)C)C(=O)N5CCC[C@H]5C(=O)N(C)CC(=O)N(C)[C@@H](C(C)C)C(=O)O[C@@H]4C)c3nc-2c(C(=O)N[C@@H]2C(=O)N[C@H](C(C)C)C(=O)N3CCC[C@H]3C(=O)N(C)CC(=O)N(C)[C@@H](C(C)C)C(=O)O[C@@H]2C)c(N)c1=O [Dactinomycin]
HOSE1C
  drug sensitivity score: 34.6
OVCAR4
  drug sensitivity score: 17.5
OV90
  drug sensitivity score: 23.1
HOSE2C
  drug sensitivity score: 30.5
OVCAR5
  drug sensitivity score: 20.9
Kuramochi
  drug sensitivity score: 27.9
Ovsaho
  drug sensitivity score: 26.5
JHOS2
  drug sensitivity score: 26.5
COV362
  drug sensitivity score: 13.9
CAOV3
  drug sensitivity score: 23.4
OVCAR8
  drug sensitivity score: 24.3
COV318
  drug sensitivity score: 9

## Cn1ncc(Cl)c1-c1cc(C(=O)N[C@H](CN)Cc2ccc(F)c(F)c2)oc1Cl [Uprosertib]
HOSE1C
  drug sensitivity score: 3.2
OVCAR4
  drug sensitivity score: 0
OV90
  drug sensitivity score: 0.7
HOSE2C
  drug sensitivity score: 2.1
OVCAR5
  drug sensitivity score: 0.9
Kuramochi
  drug sensitivity score: 1
Ovsaho
  drug sensitivity score: 0.6
JHOS2
  drug sensitivity score: 0
COV362
  drug sensitivity score: 0
CAOV3
  drug sensitivity score: 0.9
OVCAR8
  drug sensitivity score: 0
COV318
  drug sensitivity score: 0.4

## CC1(C)CC[C@]2(NC(=O)C(C)(F)F)CC[C@]3(C)[C@H](C(=O)C=C4[C@@]5(C)C=C(C#N)C(=O)C(C)(C)[C@@H]5CC[C@]43C)[C@@H]2C1 [Omaveloxolone]
HOSE1C
  drug sensitivity score: 16.5
OVCAR4
  drug sensitivity score: 18.6
OV90
  drug sensitivity score: 18.8
HOSE2C
  drug sensitivity score: 16.3
OVCAR5
  drug sensitivity score: 13.7
Kuramochi
  drug sensitivity score: 14.3
Ovsaho
  drug sensitivity score: 19.6
JHOS2
  drug sensitivity score: 13.3
COV362
  drug sensitivity score: 9.2
CAOV3
  drug sensitivity score: 17.4
OVCAR8
  drug sensitivity score: 18.9
COV318
  drug sensitivity score: 10.5

## CCCc1cc(C)[nH]c(=O)c1CNC(=O)c1cc(-c2ccnc(N3CCN(C)CC3)c2)cc2c1cnn2C(C)C [GSK343]
HOSE1C
  drug sensitivity score: 0
OVCAR4
  drug sensitivity score: 0
OV90
  drug sensitivity score: 0
HOSE2C
  drug sensitivity score: 0
OVCAR5
  drug sensitivity score: 0
Kuramochi
  drug sensitivity score: 0
Ovsaho
  drug sensitivity score: 0
JHOS2
  drug sensitivity score: 0
COV362
  drug sensitivity score: 0
CAOV3
  drug sensitivity score: 0
OVCAR8
  drug sensitivity score: 0
COV318
  drug sensitivity score: 0

## Cn1ncc(Cl)c1-c1cc(C(=O)N[C@H](CN)Cc2cccc(F)c2)sc1Cl [Afuresertib]
HOSE1C
  drug sensitivity score: 2.9
OVCAR4
  drug sensitivity score: 0.5
OV90
  drug sensitivity score: 0.9
HOSE2C
  drug sensitivity score: 2.8
OVCAR5
  drug sensitivity score: 1.2
Kuramochi
  drug sensitivity score: 4
Ovsaho
  drug sensitivity score: 1.5
JHOS2
  drug sensitivity score: 0
COV362
  drug sensitivity score: 0
CAOV3
  drug sensitivity score: 0.8
OVCAR8
  drug sensitivity score: 0.5
COV318
  drug sensitivity score: 1.8
